The values that follow are results of earlier work, collected in patent publication US20240082270A1 (priority 2021, published 2024).

Structures are written as SMILES.

For the data set, the system named is live SARS-CoV-2.

In the case of `CCCCCc1cc(O)c(C/C=C(\C)CCC=C(C)C)c(O)c1C(=O)O` [CBGA, cannabigerolic acid], the effectiveness against variants entry is reported as “equally effective”. In the case of `C=C(C)[C@@H]1CCC(C)=C[C@H]1c1c(O)cc(CCCCC)c(C(=O)O)c1O` [CBDA], the effectiveness against variants entry is on record as “equally effective”.
